The text below walks through data of publication PMC11758220, “Identification of a Privileged Scaffold for Inhibition of Sterol Transport Proteins through the Synthesis and Ring Distortion of Diverse, Pseudo-Natural Products” (ACS Central Science, 2025).

Some results are limits rather than exact numbers.

The target of one assay is T1, Aster-B (Homo sapiens, UniProt Q3KR37).
T1 construct: -B(364-552); GST (PreScission-cleavable) (N, cleaved yes); made in house; host or cells: E. coli OverExpress C41
T1 sequence (Q3KR37 364-552): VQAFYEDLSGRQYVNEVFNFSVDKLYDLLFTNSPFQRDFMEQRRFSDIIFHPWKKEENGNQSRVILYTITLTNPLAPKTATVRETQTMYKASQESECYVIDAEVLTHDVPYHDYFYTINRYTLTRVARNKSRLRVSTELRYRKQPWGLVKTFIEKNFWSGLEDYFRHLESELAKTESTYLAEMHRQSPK
The assay can be described thus: Fluorescence polarisation (FP) competition with NBD-cholesterol, Aster-B. Type of assay: binding. As to conditions: for Aster-B (FP) inhibition / inhibition at 10 µM: single dose, Dose = 10 µM; for IC50: mean of three experiments run in technical duplicates. The text has this:
Protein expression constructs
Human ASTER domains of Aster-A(359-547), -B(364-552) and -C(318-504) were subcloned into a pGEX-6p-2rbs vector, thus introducing the cloning artifact ‘GPLGS’.3 The pGEX-6P-1-GST-OSBP(377- […]
a gift from James H. Hurley (University of California).4 The pHIS_2His6_Thrombin_STARD4(2-205;C75S) plasmid was a gift from Young Jun Im (Chonnam National University).5 STARD5A was a gift from Nicola Burgess-Brown (Addgene plasmid #42392; http://n2t.net/addgene:42392; […]
Protein expression and purification […]
vectors including an N-terminal PreScission-cleavable glutathione S-transferase (GST)-tag were expressed in Escherichia coli (E. coli) OverExpress C41 in Terrific Broth (TB) medium for 16 h at 18 °C after the induction with 0.1 mM isopropyl β-D-1-thiogalactopyranoside (IPTG). Cells were harvested at 3500 × g for 15 minutes and lysed by sonication in buffer containing 50 mM HEPES pH 7.5, 300 mM NaCl, 10 %v/v glycerol, 5 mM dithiothreitol (DTT), 0.1 %v/v Triton X-100 and protease inhibitor mix HP plus (Serva). The lysate was purified by affinity chromatography on a GSTrap FF column (Cytiva) using an ÄKTA Start (Cytiva) in buffer containing 50 mM HEPES pH 7.5, 300 mM NaCl, 10 %v/v glycerol, 5 mM DTT and 0.01 %v/v Triton X-100. The GST-tag was cleaved overnight on the column at 4 °C. The Aster sterol binding domains were further purified by size-exclusion chromatography (SEC) on a HiLoad 16/600 Superdex 75 pg (Cytiva) in buffer containing 20 mM HEPES pH 7.5, 300 mM NaCl, 10 %v/v […]
STARD5(6-213) harboring an N-terminal His6-Tag were expressed in E. coli BL21(DE3) in Luria-Bertani Broth (LB) medium for approximately 16 h at 18 °C after induction with 0.15 mM IPTG. Cells were harvested at 3500 × g for 15 minutes and lysed by sonication in buffer containing 50 mM HEPES pH 7.5, 150 mM NaCl, 5 %v/v glycerol, 5 mM DTT, 0.1 %v/v Triton X -100 and ethylenediaminetetraacetic acid (EDTA)-free protease inhibitor cocktail (Sigma-Aldrich). The cleared lysate was purified by affinity chromatography on a Ni-NTA Superflow Cartridge (Qiagen) using an ÄKTA Start (Cytiva) in buffer containing 50 mM HEPES pH 7.5, 150 mM NaCl, 5 %v/v glycerol, 5 mM DTT. START domains were eluted by using elution buffer containing 50 mM HEPES pH 7.5, 150 mM NaCl, 5 %v/v glycerol, 5 mM DTT and 500 mM imidazole. Proteins were further purified by SEC on a HiLoad 16/600 Superdex 75 pg (Cytiva) in buffer containing 20 mM HEPES pH 7.5, 150 mM NaCl, 5 %v/v glycerol and 2 mM DTT.
The ORP domain of human OSBP(377-807) in the pGEX-6p-1 vector with an N-terminal PreScission-cleavable GST-tag was expressed in E. coli OverExpress C41 in LB medium for 16 h at 18 °C after induction with 0.1 mM IPTG. Cells were harvested at 3500 × g for 15 minutes and lysed by sonication in buffer containing 20 mM HEPES pH 7.5, 300 mM NaCl, 10 %v/v glycerol, 5 mM DTT, 0.1 %v/v Triton X-100 and EDTA-free protease inhibitor cocktail (Sigma-Aldrich). The cleared lysate was purified by affinity chromatography on a GSTrap HF column (Cytiva) using an ÄKTA Start (Cytiva) in buffer containing 20 mM HEPES pH 7.5, 300 mM NaCl, 10 %v/v glycerol, 5 mM DTT. OSBP(377 -807) was eluted by using elution buffer containing 20 mM HEPES pH 7.5, 300 mM NaCl, 10 %v/v glycerol, 5 mM DTT and 10 mM reduced glutathione. Proteins were further purified by SEC on a HiLoad 16/600 Superdex 75 pg (Cytiva) using an ÄKTA Explorer (Cytiva) in buffer containing 20 mM HEPES pH 7.5, 150 mM NaCl, 10 %v/v glycerol and 2 mM DTT.
The ORP domains of human ORP1(534-950) in pET24b(+) and ORP2(49-480) in the pET24b(+) vector including an N-terminal His6-Tag were expressed in E. coli BL21(DE3) in TB medium for approximately 16 h at 18 °C after induction with 0.1 mM IPTG. Cells were collected at 3500 × g for 15 minutes and lysed by sonification in buffer containing 10 mM Tris-HCl pH 8, 300 mM NaCl, 5 % glycerol, 2 mM DTT, 0.1 % Triton X-100 and EDTA-free protease inhibitor cocktail (Sigma-Aldrich). The cleared […]

Another assay concerns the target T2, STARD3 (Homo sapiens, UniProt Q14849).
T2 construct: STARD3(216-444); made in house; host or cells: E. coli BL21(DE3)
T2 sequence (Q14849 216-444): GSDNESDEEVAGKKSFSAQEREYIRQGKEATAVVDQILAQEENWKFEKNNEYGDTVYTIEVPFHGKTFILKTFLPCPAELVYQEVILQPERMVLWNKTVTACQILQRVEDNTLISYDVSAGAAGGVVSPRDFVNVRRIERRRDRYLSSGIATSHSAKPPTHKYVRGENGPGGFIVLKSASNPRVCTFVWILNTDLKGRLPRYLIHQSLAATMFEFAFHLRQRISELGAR
The assay can be described thus: Differential scanning fluorimetry (DSF), STARD3. Type of assay: binding. As to conditions: for STARD3 (DSF) ΔTm / ΔTm at 10 µM: single dose, Dose = 10 µM; for Kd: apparent Kd, mean of three experiments run in technical duplicates, read-out: STARD3 Kd,app (DSF); for STARD3 (DSF) ΔTmmax: maximal thermal shift.

As to `Cc1c2c(nc3cc(Br)ccc13)[C@@]1(C)CC[C@@H](O)C[C@H]1CC2` [Compound 2c], the “Aster-B (FP) inhibition” value at Aster-B is reported as 9%. In addition, the “STARD3 (DSF) ΔTm” value on STARD3 is -0.168 °C.

On to `C[C@]12CC[C@@H](O)C[C@H]1CCc1c2[nH]c2ccc(F)cc12` [Compound 10d], for which the “Aster-B (FP) inhibition” value at Aster-B is reported as 0.833%. Also, on STARD3, the “STARD3 (DSF) ΔTm” value was -0.115 °C.

Consider `C[C@]12CC[C@@H](O)C[C@H]1CCc1c2[nH]c2ccc(I)cc12` [Compound 10h], for which the “Aster-B (FP) inhibition” value at Aster-B is 32%. Besides, the “STARD3 (DSF) ΔTm” value on STARD3 was found to be 0.1 °C.

By inhibition is commonly meant the relative decrease from the control value, in per cent. The ΔTm is the shift of the melting midpoint relative to a reference. Turning to `Cc1cc(C)c2c3c([nH]c2c1)[C@@]1(C)CC[C@@H](O)C[C@H]1CC3` [Compound 10j], at Aster-B, the inhibition at 10 µM is 16%. In addition, on STARD3, the ΔTm at 10 µM is -0.108 °C.

As usually defined, the IC50 is the concentration that inhibits the measured activity by half. A higher IC50 goes with weaker potency. For `CC12CCC3CC1CCC21C(=Nc2c(Br)cc(C(F)(F)F)cc21)O3` (stereo not drawn) [Compound 15h], on Aster-B, the IC50 is over 80 µM and the inhibition at 10 µM turned out to be 18%. Moreover, the ΔTm at 10 µM at STARD3 is 0.0409 °C.

On to `C[C@]12CC[C@@H](O)C[C@H]1CCc1sc(-c3cccnc3)nc12` [Compound 8c], for which, on Aster-B, the “Aster-B (FP) inhibition” value was determined as 7%. For the same molecule, the “STARD3 (DSF) ΔTm” value at STARD3 worked out at 0.345 °C.

In the case of `C[C@]12CC[C@@H](O)C[C@H]1CCc1nc3cc(F)c(F)cc3nc12` [Compound 7c], the “Aster-B (FP) inhibition” value on Aster-B was 4%. Also, the “STARD3 (DSF) ΔTm” value at STARD3 was -0.124 °C.

With `C[C@]12CC[C@@H](O)C[C@H]1CCc1c2nc2ccccc2c1-c1ccc(F)cc1` [Compound 2d], the inhibition at 10 µM at Aster-B was 7.5%. Further, the ΔTm at 10 µM at STARD3 worked out at 0.0456 °C.

`C[C@]12CC[C@@H](O)C[C@H]1CCc1c2nc2ccccc2c1-c1ccccc1` [Compound 2b]: the “Aster-B (FP) inhibition” value on Aster-B is reported as 2.5%. Besides, the “STARD3 (DSF) ΔTm” value at STARD3 was found to be 0.0566 °C.

In the case of `C[C@]12CC[C@@H]3C[C@H]1CC[C@@]21C(=Nc2c(F)cc(Cl)cc21)O3` [Compound 15i], on Aster-B, the IC50 was over 80 µM and the inhibition at 10 µM is 13%. Further, at STARD3, the ΔTm at 10 µM is -0.0884 °C.

Take `CC12CCC3CC1CCC21C(=Nc2ccc(N4CCOCC4)cc21)O3` (single isomer, unassigned; (-)) [(−)-19a]: on Aster-B, the half-maximal inhibitory concentration (IC50) was over 80 µM and the “Aster-B (FP) inhibition” value amounted to 7%. For the same molecule, on STARD3, the Kd is over 100 µM, the “STARD3 (DSF) ΔTmmax” value was 0.9 °C and the “STARD3 (DSF) ΔTm” value is 1.0 °C.

For `C[C@]12CC[C@@H]3C[C@H]1CC[C@@]21C(=Nc2ccc(C(F)(F)F)cc21)O3` [Compound 15g], on Aster-B, the concentration for half-maximal inhibition (IC50) is over 80 µM and the inhibition at 10 µM came to 18%. Also, the ΔTm at 10 µM at STARD3 was 0.655 °C.

Regarding `C[C@]12CC[C@@H](O)C[C@H]1CCc1nc3cc(Br)c(Br)cc3nc12` [Compound 7e], on Aster-B, the “Aster-B (FP) inhibition” value was 12%. Moreover, the “STARD3 (DSF) ΔTm” value on STARD3 amounted to 0.138 °C.

For `COc1ccc(-c2ccc3c(c2)C24CCC5CC(CCC52C)OC4=N3)cc1` (stereo not drawn) [Compound 21b], at Aster-B, the IC50 is over 80 µM and the inhibition at 10 µM was 21%. Besides, on STARD3, the Kd was 27.9 µM, the “STARD3 (DSF) ΔTmmax” value was determined as 5.6 °C and the ΔTm at 10 µM amounted to 3.6 °C.

Take `CCCCCNc1ccc2c(c1)[C@@]13CC[C@@H]4C[C@@H](CC[C@@]41C)OC3=N2` [Compound 19c]: on Aster-B, the IC50 was over 80 µM and the inhibition at 10 µM is 11%. At STARD3, the Kd worked out at 9.54 µM, the “STARD3 (DSF) ΔTmmax” value was determined as 7.2 °C and the ΔTm at 10 µM was 4.3 °C.

Turning to `C[C@]12CC[C@@H](O)C[C@H]1CCC[C@]21NC(=O)c2ccc(F)cc2N1` [Compound 5b], at Aster-B, the “Aster-B (FP) inhibition” value is recorded as 8% and the inhibition at 10 µM was 15%. Further, on STARD3, the “STARD3 (DSF) ΔTm” value came to 0.0138 °C and the ΔTm at 10 µM is -0.121 °C.

As to `C[C@]12CC[C@@H](O)C[C@H]1CCc1c2[nH]c2c(F)cc(Cl)cc12` [Compound 10i], the inhibition at 10 µM at Aster-B is -4%. Moreover, on STARD3, the ΔTm at 10 µM was determined as 0.0372 °C.
